Values of other authors, collected in patent EP3728136B1 (Easymining Sweden AB, priority 2017, dated 2019).

Tested on: biogas-producing bacteria
Details: concentration of free ammonia increased to 620 mg/l; Siles et al., 2010

N [ammonia]
gradual decrease of biogas production: 21%
